From paper PMC6851324, “Design and development of stapled transmembrane peptides that disrupt the activity of G-protein–coupled receptor oligomers” (The Journal of Biological Chemistry, 2019)
Read-outs that look alike come from different tables or passages of the source. Where a SMILES comes first, the peptide text is derived from it. Bridges are numbered along the chain shown (N, C = ends). Where no end group is shown, it is not given here. [ ]: non-standard residue; d: D form. S5 = C=CCCC[C@](C)(N)C(=O)O; Nle = CCCC[C@H](N)C(=O)O

Assays:
[1] = target: T1, trypsin from porcine pancreas (Sus scrofa, UniProt P00761); assay: Proteolytic stability against trypsin; format: in vitro ADME; conditions: pig
T1 construct: purchased Sigma; host or cells: porcine pancreas
Procedure: (§1) Figure 4. Biophysical analysis of stapled peptides. A, amino acid sequence alignment of the targeted TM regions and disrupting peptides. Cys residues are in the reduced state. Blue bridges indicate the stapled amino acid residues. […] Yields, purity, and MALDI-TOF data are shown for the stapled peptides and negative control. B, CD analysis of 30–50 μM peptides at 20 °C. For proteolytic stability studies, the peptide solution (55.5 μM for trypsin and chymotrypsin and 11.1 μM for serum) was incubated in the presence of 0.55 μg/ml trypsin from porcine pancreas (E), α-chymotrypsin (F), or mouse serum (G) at 37 °C for the indicated times (indicated on the x axis). Data are mean ± S.E. (error bars) (n = 3) percentage of intact peptide normalized to t = 0. Proteolytic half-lives and putative cleavage sites (predicted using the Expasy bioinformatics server's model with a 50% probability of cleavage) are indicated at the bottom of each panel. Positive correlation between helicity and half-life in trypsin/chymotrypsin (C) or serum (D) was determined by two-tailed Pearson's correlation test. TEXT PRINTED IN THE PICTURE: (B) TM7-TAT: Ellipticity (%): 3.4 | (B) TM6-TAT: Ellipticity (%): 18.3 | (B) TM5-TAT: Ellipticity (%): 20.9 | (B) 8: Ellipticity (%): 58.3 | (B) 9: Ellipticity (%): 46.4 | (B) 10: Ellipticity (%): 36.8 | (B) 11: Ellipticity (%): 46 | (E) TM7-TAT: Half-life (min): 21; #Cleavage sites: 8 | (E) TM6-TAT: Half-life (min): 40; #Cleavage sites: 7 | (E) TM5-TAT: Half-life (min): 33; #Cleavage sites: 8 | (E) 8: Half-life (min): 307; #Cleavage sites: 0 | (E) 9: Half-life (min): 178; #Cleavage sites: 0 | (E) 10: Half-life (min): 75; #Cleavage sites: 6 | (E) 11: Half-life (min): 84; #Cleavage sites: 0 | (F) TM7-TAT: Half-life (min): 22; #Cleavage sites: 6 | (F) TM6-TAT: Half-life (min): 32; #Cleavage sites: 7 | (F) TM5-TAT: Half-life (min): 28; #Cleavage sites: 7 | (F) 8: Half-life (min): 425; #Cleavage sites: 4 | (F) 9: Half-life (min): 198; #Cleavage sites: 3 | (F) 10: Half-life (min): 63; #Cleavage sites: 2 | (F) 11: Half-life (min): 79; #Cleavage sites: 4 | (G) TM7-TAT: Half-life (hours): 0.46 | (G) TM6-TAT: Half-life (hours): 0.55 | (G) TM5-TAT: Half-life (hours): 0.81 | (G) 8: Half-life (hours): ≥18 | (G) 9: Half-life (hours): 14.7 | (G) 10: Half-life (hours): 11.7 | (G) 11: Half-life (hours): 5.3 DOUBTS OF THE COPYIST ABOUT THIS PICTURE: Panel A table (Yield, Rt, Purity, [M+H+] calc., [M+H+] Peak Found for 7-11) left out as synthesis and mass-spectrum characterisation data; uncertain whether [M+H+] calc. should count as a molecular weight
(§2) Dose–response curves were fitted using a four-parameter logistic nonlinear regression mode. Peptide stability data were fitted using a nonlinear regression mode for dissociation kinetics. All statistical tests, curve fitting, and graphing were performed using GraphPad Prism 8 (GraphPad Software, La Jolla, CA).
To 100 μl of peptide solution (100 μM, dissolved in ammonium bicarbonate buffer, pH 7.5), 60 μl of ammonium bicarbonate buffer (pH 7.5) was added, together with 20 μl of temperature-equilibrated (37 ± 1 °C) trypsin (5 μg/ml) from porcine pancreas (Sigma, 13,000–20,000 BAEE units/mg of protein). Peptides were incubated for 15, 30, 60, 120, 240, and 480 min, and then MeOH (HPLC Grade) + 0.05% TFA was added. The samples were then centrifuged (15,000 rpm), and the supernatant was analyzed, using Fmoc-Gly (10 μl, 0.2 mM) as an internal standard. The digestion at each time point was repeated three times to give the average values along with S.D. The amount of intact peptide that remained in the mixture was quantified by RP-HPLC. The experiment was repeated twice on different days.

[2] = target: T2, α-chymotrypsin from bovine pancreas (Bos taurus, UniProt P00766, DEL14-15/DEL147-148); assay: Proteolytic stability against chymotrypsin; format: in vitro ADME; conditions: cattle
T2 construct: purchased Sigma Type II; host or cells: bovine pancreas
Procedure: as §1, §2
To 100 μl of peptide solution (100 μM, dissolved in ammonium bicarbonate buffer, pH 7.5), 60 μl of ammonium bicarbonate buffer (pH 7.5) was added, together with 20 μl of temperature-equilibrated (37 ± 1 °C) α-chymotrypsin (5 μg/ml) from bovine pancreas (Sigma, Type II, activity > 40 units/mg protein). Peptides were incubated for 15, 30, 60, 120, 240, and 480 min, and then MeOH (HPLC grade) + 0.05% TFA was added. The samples were then centrifuged (15,000 rpm), and supernatant was analyzed in a similar manner as described above. The experiment was repeated twice on different days.

CD helicity measurements = format: physicochemical; conditions: 30–50 μM peptide in MilliQ water, 20 °C, 1-mm path length, three scans 195–260 nm, % helicity from molar ellipticity at 222 nm
Procedure: Figure 4. Biophysical analysis of stapled peptides. A, amino acid sequence alignment of the targeted TM regions and disrupting peptides. Cys residues are in the reduced state. Blue bridges indicate the stapled amino acid residues. […] Yields, purity, and MALDI-TOF data are shown for the stapled peptides and negative control. B, CD analysis of 30–50 μM peptides at 20 °C. For proteolytic stability studies, the peptide solution (55.5 μM for trypsin and chymotrypsin and 11.1 μM for serum) was incubated in the presence of 0.55 μg/ml trypsin from porcine pancreas (E), α-chymotrypsin (F), or mouse serum (G) at 37 °C for the indicated times (indicated on the x axis). Data are mean ± S.E. (error bars) (n = 3) percentage of intact peptide normalized to t = 0. Proteolytic half-lives and putative cleavage sites (predicted using the Expasy bioinformatics server's model with a 50% probability of cleavage) are indicated at the bottom of each panel. Positive correlation between helicity and half-life in trypsin/chymotrypsin (C) or serum (D) was determined by two-tailed Pearson's correlation test. […]
CD spectra were recorded on a Jasco J-810 with a total of three scans from 195 to 260 nm in 0.5-nm increments. […]
The Jasco J-810 generates the raw output in ellipticity and is measured in millidegrees. […] Once the precise concentration was confirmed, the molar ellipticity [θ] was calculated as follows. […]
Where c is the sample concentration (μM), l is the path length (mm), n is the number of peptide bonds (calculated as amino acid residues − 1), and θobs is the observed ellipticity (millidegrees). […]

[3] = isolated enzyme trypsin, 55.5 μM peptide, 0.55 μg/ml trypsin from porcine pancreas, ammonium bicarbonate buffer pH 7.5, 37 °C, 15–480 min, intact peptide by RP-HPLC (Fmoc-Gly internal standard), n = 3, nonlinear regression fit, read-out: Half-life (min), trypsin
[4] = isolated enzyme chymotrypsin, 55.5 μM peptide, 0.55 μg/ml α-chymotrypsin from bovine pancreas, ammonium bicarbonate buffer pH 7.5, 37 °C, 15–480 min, intact peptide by RP-HPLC, n = 3, nonlinear regression fit, read-out: Half-life (min), α-chymotrypsin

T1 sequence (P00761 9-231): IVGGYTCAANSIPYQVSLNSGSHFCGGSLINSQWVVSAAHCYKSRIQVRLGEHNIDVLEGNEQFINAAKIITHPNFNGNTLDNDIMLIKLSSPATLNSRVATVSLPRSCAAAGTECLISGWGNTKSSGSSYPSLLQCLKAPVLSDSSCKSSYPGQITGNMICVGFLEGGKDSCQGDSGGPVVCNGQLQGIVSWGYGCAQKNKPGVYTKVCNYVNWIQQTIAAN

Row | Molecule | half-life at 55.5 μM ([1]; trypsin from porcine pancreas, pH 7.5, trypsin 0.55 μg/ml, 37 °C, pH 7.5, approximate value of running text, read-out: half-life in trypsin as stated in text (converted)) [min] | half-life at 55.5 μM ([1]; 55.5 μM peptide, 0.55 μg/ml trypsin from porcine pancreas, ammonium bicarbonate buffer pH 7.5, 37 °C, 15–480 min, intact peptide by RP-HPLC (Fmoc-Gly internal standard), n = 3, nonlinear regression fit, read-out: Half-life (min), trypsin) [min] | half-life at 55.5 μM ([2]; 55.5 μM peptide, 0.55 μg/ml α-chymotrypsin from bovine pancreas, ammonium bicarbonate buffer pH 7.5, 37 °C, 15–480 min, intact peptide by RP-HPLC, n = 3, nonlinear regression fit, read-out: Half-life (min), α-chymotrypsin) [min] | Ellipticity (%) (helicity by CD) (CD helicity measurements) | half-life at 55.5 μM ([1]; isolated enzyme trypsin, pH 7.5, Half-life (min), trypsin) [min] | half-life at 55.5 μM ([2]; isolated enzyme chymotrypsin, pH 7.5) [min] | half-life at 55.5 μM [1, 3] [min] | half-life at 55.5 μM [2, 4] [min] | Ellipticity (%) (helicity by CD) (CD helicity measurements; listed as CB1 TM5-TAT)
1 | CCCC[C@H](NC(=O)[C@]1(C)CCC/C=C\CCC[C@](C)(NC(=O)[C@H](Cc2ccccc2)NC(=O)[C@H](CC(C)C)NC(=O)[C@H](CC(C)C)NC(=O)[C@H](CC(C)C)NC(=O)[C@@H](N)C(C)C)C(=O)N[C@@H](C(C)C)C(=O)N[C@@H](Cc2ccc(O)cc2)C(=O)N[C@@H](C)C(=O)N1)C(=O)N[C@@H](Cc1ccc(O)cc1)C(=O)N[C@H](C(=O)N[C@@H](CC(C)C)C(=O)N[C@@H](Cc1c[nH]c2ccccc12)C(N)=O)[C@@H](C)CC [Peptide 8] (H-VLLLF[S5]VYA[S5][Nle]YILW-NH2; staple (Z) 6-10) | ~300 | 307 | 425 | 58.3 |  |  |  |  | 
2 | C=CCCC[C@](C)(NC(=O)[C@H](Cc1ccc(O)cc1)NC(=O)[C@@H](N)C(C)C)C(=O)N[C@@H](Cc1ccc(O)cc1)C(=O)N[C@@H](CCCC)C(=O)N[C@@](C)(CCCC=C)C(=O)N[C@H](C(=O)N[C@@H](CC(C)C)C(=O)N[C@@H](Cc1c[nH]c2ccccc12)C(N)=O)[C@@H](C)CC [Peptide 11] (H-VY[S5]Y[Nle][S5]ILW-NH2) |  |  |  | 46.0 | 84 | 79 |  |  | 
3 | ETYLMFWIGVTSVLLLFIVYAYMYILWGRKKRRQRRR [TM5-TAT, reference compound] |  |  |  |  |  |  | 33 | 28 | < 20
4 | GRKKRRQRRRKTLVLILVVLIICWGPLLAIMVY [TM6-TAT, reference compound] |  |  |  | < 20 |  |  | 40 | 32 | 
